Assay results published in ChEMBL document CHEMBL1139248 (Bioorg Med Chem Lett, 2009).

What was measured:
[1] = target: T1, Calcitonin gene-related peptide type 1 receptor (Homo sapiens, UniProt O60894+Q16602); experiment: biochemical; assay type: cell-based, HEK293
Description: Displacement of [125I]hCGRP from human CGRP receptor expressed in HEK293 cells coexpressing RAMP1

[2] = target: T1, Calcitonin gene-related peptide type 1 receptor; assay type: functional, cell-based, HEK293
[3] = target: T1, Calcitonin gene-related peptide type 1 receptor; experiment: Antagonistic activity at human CGRP receptor expressed in HEK293 cells coexpressing RAMP1 assessed as inhibition of CGRP-induced cAMP production; assay type: functional, cell-based

T1 sequence (Q16602 whole entry, one chain of several): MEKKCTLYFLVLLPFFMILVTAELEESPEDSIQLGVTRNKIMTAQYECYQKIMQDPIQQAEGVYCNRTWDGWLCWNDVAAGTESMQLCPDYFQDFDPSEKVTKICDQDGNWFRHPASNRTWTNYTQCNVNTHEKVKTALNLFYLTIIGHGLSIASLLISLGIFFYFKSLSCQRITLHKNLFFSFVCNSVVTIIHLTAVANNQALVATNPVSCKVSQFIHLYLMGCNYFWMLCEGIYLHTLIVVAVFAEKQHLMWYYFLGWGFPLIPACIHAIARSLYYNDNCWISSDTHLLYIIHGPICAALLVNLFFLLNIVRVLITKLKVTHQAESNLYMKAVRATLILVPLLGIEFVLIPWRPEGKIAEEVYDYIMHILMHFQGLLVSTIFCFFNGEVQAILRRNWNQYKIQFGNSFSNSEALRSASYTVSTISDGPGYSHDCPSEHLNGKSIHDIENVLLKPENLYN

| Ki [1] | IC50 [2] | IC50 [3] | SMILES |
| --- | --- | --- | --- |
|  | 170 nM |  | CN1C(=O)NC(=O)[C@]12Cc1ccc(NC(=O)Cn3c(=O)n(C4CCOC4)c4ccccc43)cc1C2 (some centres undefined) |
| 1.2 nM | 27 nM | 5.2 nM | O=C(Cn1c(=O)n(C2CCOC2)c2ccccc21)Nc1ccc2c(c1)C[C@]1(C2)C(=O)Nc2ncccc21 (some centres undefined) |
| 0.87 nM | 24 nM | 2.5 nM | O=C(Cn1c(=O)n(C2CCSCC2)c2ccccc21)Nc1ccc2c(c1)C[C@]1(C2)C(=O)Nc2ncccc21 |
| 1.7 nM | 39 nM | 5.7 nM | O=C(CN1C(=O)C2(CCOCC2)c2ccccc21)Nc1ccc2c(c1)C[C@]1(C2)C(=O)Nc2ncccc21 |
| 96 nM |  |  | O=C1CC2(Cc3ccc(NC(=O)Cn4c(=O)n(-c5ccccn5)c5ccccc54)cc3C2)C(=O)N1 (centres undefined) |
| 2700 nM |  |  | O=C(Cn1c(=O)n(-c2ccccn2)c2ccccc21)Nc1ccc2c(c1)CC1(CCCNC1=O)C2 (centres undefined) |
| 230 nM |  |  | O=C(Cn1c(=O)n(-c2ccccn2)c2ccccc21)Nc1ccc2c(c1)C[C@@]1(C2)NC(=O)NC1=O |
| 270 nM |  |  | O=C(Cn1c(=O)n(-c2ccccn2)c2ccccc21)Nc1ccc2c(c1)CC1(CCNC1=O)C2 (centres undefined) |
| 2.3 nM | 420 nM | 8.6 nM | O=C(Cn1c(=O)n(-c2ccccn2)c2ccccc21)Nc1ccc2c(c1)C[C@]1(C2)C(=O)Nc2ncccc21 |
| 130 nM |  |  | O=C(Cn1c(=O)n(-c2ccccn2)c2ccccc21)Nc1ccc2c(c1)C[C@@]1(C2)N=C(c2cccnc2)NC1=O |
| 3.7 nM |  |  | O=C(Cn1c(=O)n(-c2ccccn2)c2ccccc21)Nc1ccc2c(c1)CC1(C2)C(=O)Nc2ncccc21 (centres undefined) |
| 35 nM | 160 nM | 57 nM | CN1C(=O)NC(=O)[C@]12Cc1ccc(NC(=O)CN3C(=O)C4(CCOCC4)c4ccccc43)cc1C2 |
| 2600 nM |  |  | O=C(Cn1c(=O)n(-c2ccccn2)c2ccccc21)Nc1ccc2c(c1)C[C@@]1(C2)N=C(C2CC2)NC1=O |
| 16 nM | 74 nM | 10 nM | CN1C(=O)NC(=O)[C@]12Cc1ccc(NC(=O)Cn3c(=O)n(-c4ccncn4)c4ccccc43)cc1C2 |
| 0.04 nM | 0.62 nM | 0.28 nM | O=C(Cn1c(=O)n2c3c(cccc31)NC(=O)C2)Nc1ccc2c(c1)C[C@]1(C2)C(=O)Nc2ncccc21 |
| 520 nM |  |  | O=C(Cn1c(=O)n(-c2ccccn2)c2ccccc21)Nc1ccc2c(c1)CC1(C2)C(=O)Nc2ccccc21 (centres undefined) |
| 0.21 nM | 4.1 nM | 0.87 nM | Cc1cc(C)c2c(c1)n(CC(=O)Nc1ccc3c(c1)C[C@]1(C3)C(=O)Nc3ncccc31)c(=O)n2CC(=O)N(C)C |
| 34 nM |  |  | O=C(Cn1c(=O)n(-c2ccccn2)c2ccccc21)Nc1ccc2c(c1)C[C@@]1(C2)N=C(c2ccccc2)NC1=O |
| 0.61 nM | 35 nM | 1.6 nM | O=C(Cn1c(=O)n(-c2ccncn2)c2ccccc21)Nc1ccc2c(c1)C[C@]1(C2)C(=O)Nc2ncccc21 |
| 13 nM | 220 nM | 27 nM | CN1C(=O)NC(=O)[C@]12Cc1ccc(NC(=O)Cn3c(=O)n(C4CCSCC4)c4ccccc43)cc1C2 |

| SMILES | Ki [1] | IC50 [2] | IC50 [3] |
| --- | --- | --- | --- |
| O=C1CN(C2CCN(C(=O)N[C@@H]3N=C(c4ccccc4)c4ccccc4N(CC(F)(F)F)C3=O)CC2)C(=O)N1 | 520 nM |  |  |
| O=C(N[C@@H]1N=C(c2ccccc2)c2ccccc2N(CC(F)(F)F)C1=O)N1CCC(n2c(=O)[nH]c3ccccc32)CC1 | 2200 nM |  |  |
| O=C(N[C@@H]1N=C(c2ccccc2)c2ccccc2N(CC(F)(F)F)C1=O)N1CCC(n2c(=O)[nH]c3ncccc32)CC1 | 22 nM | 730 nM |  |
